Data from patent US20130196406A1, “NOVEL PROTEIN-POLYMER NANOCAPSULES” (University of Connecticut, priority 2012, published 2013).

Tests used:
[1] = molecular target: T1, Hb-PAA-1k-6 nanocapsule (bovine met-hemoglobin conjugated to polyacrylic acid, synthesized at pH 6) (Bos taurus, UniProt P01966+P02070); assay: Peroxidase-like activity, Michaelis-Menten kinetics (guaiacol oxidation by H2O2, 470 nm), Hb-PAA-1k-6; type: biochemical; settings: 1 μM Hb, 2.5 mM guaiacol, 1 mM H2O2
T1 construct: peroxidase-like activity with guaiacol/H2O2
Protocol: (§1) FIG. 5 provides Lineweaver-Burk plots for the peroxidase-like activity of Hb-PAA conjugates. A) Peroxidase-like activity for the 1 μM of Hb-PAA synthesized at pH 6.0. B) Peroxidase-like activity for 1 μM Hb-PAA synthesized at pH 7.0. All experiments were done in the presence of 1 μM Hb, 2.5 mM guaiacol and 1 mM H2O2.
(§2) Polyacrylic acid (PAA) (8000 Da) was purchased from sigma chemical Co (St. Louis, Mo.). The PAA stock solution was made by mixing 1.32 gm of 45% (w/w) PAA in 3 ml of 20 mM Na2HPO4 buffer, pH 7.2, and was further used for synthesis. Met-hemoglobin (Hb, bovine) was purchased from Sigma. Protein solutions were prepared in the respective buffers used for synthesis and the concentrations determined from the Soret absorbance of Hb using extinction co-efficient 303,956 M^−1 cm^−1 at 407 nm. […]
(§3) Hb activity was monitored by the addition of guaiacol (substrate) and hydrogen peroxide (oxidant), and formation of the colored product has been monitored by its absorption at 470 nm as a function of time (FIG. 4). […]
(§4) Hb activity was followed by literature method, with minor modifications. Product absorbance at 470 nm was monitored as a function time of after the addition of H2O2 (1 mM) to Hb (5 μM) and o-methoxyphenol (2.5 mM). Initial rates and Michaelis-Menten parameters were calculated from the kinetic data by following standard protocols. […]

[2] = molecular target: T2, Hb-PAA-1k-7 nanocapsule (bovine met-hemoglobin conjugated to polyacrylic acid, synthesized at pH 7) (Bos taurus, UniProt P01966+P02070); assay: Peroxidase-like activity, Michaelis-Menten kinetics (guaiacol oxidation by H2O2, 470 nm), Hb-PAA-1k-7; type: biochemical; settings: 1 μM Hb, 2.5 mM guaiacol, 1 mM H2O2
T2 construct: peroxidase-like activity with guaiacol/H2O2
Protocol: as §1, §2, §3, §4

T2 sequence (P01966 whole entry): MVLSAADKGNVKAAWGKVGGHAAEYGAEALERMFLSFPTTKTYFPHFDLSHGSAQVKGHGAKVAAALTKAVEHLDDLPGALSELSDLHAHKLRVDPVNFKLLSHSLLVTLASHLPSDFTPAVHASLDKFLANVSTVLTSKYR
T2 sequence (P02070 whole entry): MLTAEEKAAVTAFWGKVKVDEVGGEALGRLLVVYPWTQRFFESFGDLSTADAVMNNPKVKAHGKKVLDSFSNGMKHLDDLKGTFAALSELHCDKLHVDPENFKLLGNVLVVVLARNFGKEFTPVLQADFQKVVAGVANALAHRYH
T1 sequence (P01966 whole entry): as the sequence (P01966 whole entry) above
T1 sequence (P02070 whole entry): as the sequence (P02070 whole entry) above

Question: For COc1ccccc1O [guaiacol, o-methoxyphenol], which Vmax [1] is on record?
Answer: Its Vmax is 0.0028 mM/s.

Question: And the Vmax [2]?
Answer: Its Vmax is 0.0025 mM/s.
